Experiments:
[1] = test system: H1N1 A/New Caledonia/20/99; assay: microbe, parasite or virus in culture; assay type: cell-based, influenza A virus; conditions: Influenza A virus, H1N1, MDCK, 96 h, read-out: Virus neutralization assay (VNA), pEC50 H1N1 A/New Caledonia/20/99 (converted)
in vitro = conditions: dog, Cytotoxicity (pCC50) MDCK
[2] = biological target: HA H1 A/California/07/09 (Influenza A virus (A/California/07/2009(H1N1)), UniProt C3W5X2); assay: biochemical; conditions: Competition binding (AlphaLISA), pIC50 H1 A/California/07/09
H1N1 A/California/07/09 = assay: microbe, parasite or virus in culture; assay type: cell-based, influenza A virus; conditions: Influenza A virus, H1N1, MDCK, 96 h, read-out: Virus neutralization assay (VNA), pEC50 H1N1 A/California/07/09 (converted)
H5N1 A/Vietnam/1203/04 = assay: microbe, parasite or virus in culture; assay type: cell-based, influenza A virus; conditions: Influenza A virus, H5N1, MDCK, 96 h, read-out: Virus neutralization assay (VNA), pEC50 H5N1 A/Vietnam/1203/04, MDCK cells, 96 h, CPE by ATPlite (converted); average of repeats
[3] = biological target: HA H1 A/New Caledonia/20/99 (Influenza A virus (A/New Caledonia/20/1999(H1N1)), UniProt Q6WG00); assay: biochemical; conditions: Competition binding (AlphaLISA), pIC50 H1 A/New Caledonia/20/99
[4] = biological target: HA H5 A/Vietnam/1203/04 (Influenza A virus (A/Vietnam/1203/2004(H5N1)), UniProt Q5EP31); assay: biochemical; conditions: Competition binding (AlphaLISA), pIC50 H5 A/Vietnam/1203/04

Compound `Cc1nnc([C@@H](c2ccccc2)N2CCN(C(=O)c3cc(-c4nc5cc(C(F)(F)F)ccc5o4)ccc3F)CC2)o1` [Example 45] has an EC50 [1] of 316 nM, a CC50 (in vitro) of over 50100 nM and an IC50 [2] of 63.1 nM. It also gave an EC50 (H1N1 A/California/07/09) of 251 nM, an EC50 (H5N1 A/Vietnam/1203/04) of 50100 nM and an IC50 [3] of 100 nM. It also gave an IC50 [4] of 7940 nM.

Work on `COc1ccc2nc(-c3cccc(C(=O)N4CCN(C5(c6ccccc6)CCN(C)C5=O)CC4)c3)sc2c1` (stereo not shown) [Example 131] yielded an EC50 [1] of 2510 nM, a CC50 (in vitro) of 20000 nM and an IC50 [2] of 3160 nM. For the same compound, the EC50 (H1N1 A/California/07/09) was 1580 nM, the EC50 (H5N1 A/Vietnam/1203/04) was over 50100 nM and the IC50 [3] was 3980 nM. The IC50 [4] was 39800 nM.

Work on `CCCNC(=O)C(c1ccccc1)N1CCN(C(=O)c2cccc(-c3nc4ccc(OC)cc4s3)c2)CC1` (stereo not shown) [Example 104] yielded an EC50 [1] of 1000 nM, a CC50 (in vitro) of 7940 nM and an IC50 [2] of 251 nM. It also gave an EC50 (H1N1 A/California/07/09) of 2510 nM, an EC50 (H5N1 A/Vietnam/1203/04) of 10000 nM and an IC50 [3] of 200 nM. The IC50 [4] was 2000 nM.

For `Cn1nnc([C@@H](c2ccccc2)N2CCN(C(=O)c3cc(-c4nc5cc(OC(F)(F)F)ccc5o4)ccn3)CC2)n1` [Example 133], the EC50 [1] was 25.1 nM, the CC50 (in vitro) was over 50100 nM and the IC50 [2] was 15.8 nM. The EC50 (H1N1 A/California/07/09) was 63.1 nM, the EC50 (H5N1 A/Vietnam/1203/04) was 631 nM and the IC50 [3] was 10 nM. The IC50 [4] was 251 nM.

With `COC(=O)[C@H](c1ccccc1)N1CCN(C(=O)c2cccc(-c3nc4cc(C(F)(F)F)ccc4o3)c2)[C@H](C(N)=O)C1` [Example 46] the EC50 [1] was 158 nM, the CC50 (in vitro) was 39800 nM and the IC50 [2] was 31.6 nM. It also gave an EC50 (H1N1 A/California/07/09) of 200 nM, an EC50 (H5N1 A/Vietnam/1203/04) of 15800 nM and an IC50 [3] of 31.6 nM. The IC50 [4] was 794 nM.

Work on `COC(=O)C(c1ccccc1)N1CCN(C(=O)c2cccc(-c3nc4ccc(OC)cc4o3)c2)CC1` (stereo not shown) [Example 60] yielded an EC50 [1] of 501 nM, a CC50 (in vitro) of 25100 nM and an IC50 [2] of 63.1 nM. The EC50 (H1N1 A/California/07/09) was 631 nM, the EC50 (H5N1 A/Vietnam/1203/04) was 12600 nM and the IC50 [3] was 39.8 nM. For the same compound, the IC50 [4] was 1580 nM.

`COc1ccc2nc(-c3cccc(C(=O)N4CCN(C(Cc5nnco5)c5ccccc5)CC4)c3)sc2c1` (stereo not shown) [Example 108] gave an EC50 [1] of 1000 nM, a CC50 (in vitro) of over 50100 nM and an IC50 [2] of 1580 nM. It also gave an EC50 (H1N1 A/California/07/09) of 5010 nM, an EC50 (H5N1 A/Vietnam/1203/04) of over 50100 nM and an IC50 [3] of 501 nM. It also gave an IC50 [4] of 25100 nM.

Compound `COC(=O)C(c1ccccc1)N1CCN(C(=O)c2cccc(-c3nc4ccccc4o3)c2)CC1` (stereo not shown) [Example 31] has an EC50 [1] of 158 nM, a CC50 (in vitro) of over 50100 nM and an IC50 [2] of 31.6 nM. The EC50 (H1N1 A/California/07/09) was 316 nM, the EC50 (H5N1 A/Vietnam/1203/04) was 7940 nM and the IC50 [3] was 25.1 nM. It also gave an IC50 [4] of 1260 nM.

For `COC(=O)C(c1ccccc1)N1CCN(C(=O)c2cccc(NC(=O)c3ccc(OC)cc3)c2)CC1` (stereo not shown) [Example 81], the EC50 [1] was 631 nM, the CC50 (in vitro) was over 50100 nM and the IC50 [2] was 200 nM. The EC50 (H1N1 A/California/07/09) was 2000 nM, the EC50 (H5N1 A/Vietnam/1203/04) was 10000 nM and the IC50 [3] was 126 nM. The IC50 [4] was 1260 nM.

In the case of `CC(=O)Nc1ccc2oc(-c3cccc(C(=O)N4CCN(C(c5ccccc5)c5n[nH]c(C)n5)CC4)c3)nc2c1` (stereo not shown) [Example 6], the EC50 [1] is reported as 6.31 nM, the CC50 (in vitro) is reported as over 50100 nM and the IC50 [2] is reported as 20 nM. It also gave an EC50 (H1N1 A/California/07/09) of 20 nM, an EC50 (H5N1 A/Vietnam/1203/04) of 12600 nM and an IC50 [3] of 10 nM. It also gave an IC50 [4] of 501 nM.

In the case of `COC(=O)C(c1ccccc1)N1CCCN(C(=O)c2cccc(-c3nc4ccc(OC)cc4s3)c2)CC1` (stereo not shown) [Example 132], the EC50 [1] is reported as 2510 nM, the CC50 (in vitro) is reported as over 50100 nM and the IC50 [2] is reported as 794 nM. The EC50 (H1N1 A/California/07/09) was 39800 nM, the EC50 (H5N1 A/Vietnam/1203/04) was over 50100 nM and the IC50 [3] was 631 nM. The IC50 [4] was 15800 nM.

In the case of `O=C(c1cccc(-c2nc3cc(C(F)(F)F)ccc3o2)c1)N1CCN(C(c2ccccc2)c2nnc(C3CNC3)o2)CC1` (stereo not shown) [Example 92], the EC50 [1] is reported as 794 nM, the CC50 (in vitro) is reported as 10000 nM and the IC50 [2] is reported as 126 nM. The EC50 (H1N1 A/California/07/09) was 3160 nM, the EC50 (H5N1 A/Vietnam/1203/04) was 10000 nM and the IC50 [3] was 79.4 nM. It also gave an IC50 [4] of 3160 nM.

Compound `COc1ccc2nc(-c3cccc(C(=O)N4CCN(C(c5ccccc5)c5ccc[nH]c5=O)CC4)c3)sc2c1` (stereo not shown) [Example 91] has an EC50 [1] of 794 nM, a CC50 (in vitro) of 39800 nM and an IC50 [2] of 501 nM. It also gave an EC50 (H1N1 A/California/07/09) of 1580 nM, an EC50 (H5N1 A/Vietnam/1203/04) of over 50100 nM and an IC50 [3] of 316 nM. It also gave an IC50 [4] of 2510 nM.
